Source: ChEMBL document CHEMBL3112480, “γ-Alkylidene-γ-lactones and isobutylpyrrol-2(5H)-ones analogues to rubrolides as inhibitors of biofilm formation by gram-positive and gram-negative bacteria” (Bioorg Med Chem Lett, 2014)
Values after ≈ are worked out from the molar mass of the structure shown. One block for each compound: values may come before it.

Experiments:
Streptococcus mutans [1] = test: Antibacterial activity against Streptococcus mutans ATCC 25175 assessed as effect on planktonic growth at 0.34 ug/ml after 20 hrs relative to control; assay type: functional
Pseudomonas aeruginosa [2] = test: Antibacterial activity against Pseudomonas aeruginosa ATCC 27853 assessed as effect on planktonic growth at 2.73 ug/ml after 20 hrs relative to control; assay type: functional
[3] = test system: Staphylococcus epidermidis; test: Antibacterial activity against Staphylococcus epidermidis ATCC 35547 assessed as effect on planktonic growth at 0.34 ug/ml after 20 hrs relative to control; assay type: functional
[4] = test system: Staphylococcus epidermidis; test: Antibacterial activity against Staphylococcus epidermidis ATCC 35547 assessed as effect on planktonic growth at 43.8 ug/ml after 20 hrs relative to control; assay type: functional
Streptococcus mutans [5] = test: Antibacterial activity against Streptococcus mutans ATCC 25175 assessed as inhibition of biofilm formation at 44 ug/ml after 20 hrs by crystal-violet staining method relative to control; assay type: functional; conditions: ATCC 25175, 20 h
Pseudomonas aeruginosa [6] = test: Antibacterial activity against Pseudomonas aeruginosa ATCC 27853 assessed as effect on planktonic growth at 87.5 ug/ml after 20 hrs relative to control; assay type: functional
Streptococcus mutans [7] = test: Antibacterial activity against Streptococcus mutans ATCC 25175 assessed as effect on planktonic growth at 43.8 ug/ml after 20 hrs relative to control; assay type: functional
Staphylococcus aureus [8] = test: Antibacterial activity against Staphylococcus aureus ATCC 25923 assessed as effect on planktonic growth at 0.17 ug/ml after 20 hrs relative to control; assay type: functional
[9] = test system: Staphylococcus epidermidis; test: Antibacterial activity against Staphylococcus epidermidis ATCC 35547 assessed as inhibition of biofilm formation after 20 hrs by crystal-violet staining method; assay type: functional, organism-based; conditions: for IC50: ATCC 35547, 20 h
Streptococcus mutans [10] = test: Antibacterial activity against Streptococcus mutans ATCC 25175 assessed as effect on planktonic growth at 1.37 ug/ml after 20 hrs relative to control; assay type: functional
Staphylococcus aureus [11] = test: Antibacterial activity against Staphylococcus aureus ATCC 25923 assessed as effect on planktonic growth at 0.68 ug/ml after 20 hrs relative to control; assay type: functional
Staphylococcus aureus [12] = test: Antibacterial activity against Staphylococcus aureus ATCC 25923 assessed as effect on planktonic growth at 0.34 ug/ml after 20 hrs relative to control; assay type: functional
[13] = test system: Staphylococcus epidermidis; test: Antibacterial activity against Staphylococcus epidermidis ATCC 35547 assessed as effect on planktonic growth at 21.9 ug/ml after 20 hrs relative to control; assay type: functional
[14] = test system: Staphylococcus epidermidis; test: Antibacterial activity against Staphylococcus epidermidis ATCC 35547 assessed as effect on planktonic growth at 5.5 ug/ml after 20 hrs relative to control; assay type: functional
Pseudomonas aeruginosa [15] = test: Antibacterial activity against Pseudomonas aeruginosa ATCC 27853 assessed as inhibition of biofilm formation after 20 hrs by crystal-violet staining method; assay type: functional, organism-based; conditions: for IC50: ATCC 27853, 20 h
Pseudomonas aeruginosa [16] = test: Antibacterial activity against Pseudomonas aeruginosa ATCC 27853 assessed as effect on planktonic growth at 43.8 ug/ml after 20 hrs relative to control; assay type: functional
Pseudomonas aeruginosa [17] = test: Antibacterial activity against Pseudomonas aeruginosa ATCC 27853 assessed as effect on planktonic growth at 0.68 ug/ml after 20 hrs relative to control; assay type: functional
Staphylococcus aureus [18] = test: Antibacterial activity against Staphylococcus aureus ATCC 25923 assessed as effect on planktonic growth at 1.37 ug/ml after 20 hrs relative to control; assay type: functional
Streptococcus mutans [19] = test: Antibacterial activity against Streptococcus mutans ATCC 25175 assessed as effect on planktonic growth at 87.5 ug/ml after 20 hrs relative to control; assay type: functional
Streptococcus mutans [20] = test: Antibacterial activity against Streptococcus mutans ATCC 25175 assessed as effect on planktonic growth at 2.73 ug/ml after 20 hrs relative to control; assay type: functional
Staphylococcus aureus [21] = test: Antibacterial activity against Staphylococcus aureus ATCC 25923 assessed as effect on planktonic growth at 10.9 ug/ml after 20 hrs relative to control; assay type: functional
[22] = test system: Staphylococcus epidermidis; test: Antibacterial activity against Staphylococcus epidermidis ATCC 35547 assessed as effect on planktonic growth at 2.73 ug/ml after 20 hrs relative to control; assay type: functional
Staphylococcus aureus [23] = test: Antibacterial activity against Staphylococcus aureus ATCC 25923 assessed as effect on planktonic growth at 87.5 ug/ml after 20 hrs relative to control; assay type: functional
Pseudomonas aeruginosa [24] = test: Antibacterial activity against Pseudomonas aeruginosa ATCC 27853 assessed as effect on planktonic growth at 5.5 ug/ml after 20 hrs relative to control; assay type: functional
Staphylococcus aureus [25] = test: Antibacterial activity against Staphylococcus aureus ATCC 25923 assessed as effect on planktonic growth at 43.8 ug/ml after 20 hrs relative to control; assay type: functional
Pseudomonas aeruginosa [26] = test: Antibacterial activity against Pseudomonas aeruginosa ATCC 27853 assessed as effect on planktonic growth at 1.37 ug/ml after 20 hrs relative to control; assay type: functional
[27] = test system: Staphylococcus epidermidis; test: Antibacterial activity against Staphylococcus epidermidis ATCC 35547 assessed as effect on planktonic growth at 1.37 ug/ml after 20 hrs relative to control; assay type: functional
Staphylococcus aureus [28] = test: Antibacterial activity against Staphylococcus aureus ATCC 25923 assessed as effect on planktonic growth at 5.5 ug/ml after 20 hrs relative to control; assay type: functional
Streptococcus mutans [29] = test: Antibacterial activity against Streptococcus mutans ATCC 25175 assessed as effect on planktonic growth at 5.5 ug/ml after 20 hrs relative to control; assay type: functional
Pseudomonas aeruginosa [30] = test: Antibacterial activity against Pseudomonas aeruginosa ATCC 27853 assessed as effect on planktonic growth at 0.34 ug/ml after 20 hrs relative to control; assay type: functional
[31] = test system: Staphylococcus epidermidis; test: Antibacterial activity against Staphylococcus epidermidis ATCC 35547 assessed as effect on planktonic growth at 87.5 ug/ml after 20 hrs relative to control; assay type: functional
[32] = test system: Staphylococcus epidermidis; test: Antibacterial activity against Staphylococcus epidermidis ATCC 35547 assessed as effect on planktonic growth at 0.68 ug/ml after 20 hrs relative to control; assay type: functional
Streptococcus mutans [33] = test: Antibacterial activity against Streptococcus mutans ATCC 25175 assessed as effect on planktonic growth at 21.9 ug/ml after 20 hrs relative to control; assay type: functional
[34] = test system: Staphylococcus epidermidis; test: Antibacterial activity against Staphylococcus epidermidis ATCC 35547 assessed as effect on planktonic growth at 10.9 ug/ml after 20 hrs relative to control; assay type: functional
Pseudomonas aeruginosa [35] = test: Antibacterial activity against Pseudomonas aeruginosa ATCC 27853 assessed as effect on planktonic growth at 21.9 ug/ml after 20 hrs relative to control; assay type: functional
Pseudomonas aeruginosa [36] = test: Antibacterial activity against Pseudomonas aeruginosa ATCC 27853 assessed as effect on planktonic growth at 0.17 ug/ml after 20 hrs relative to control; assay type: functional
Streptococcus mutans [37] = test: Antibacterial activity against Streptococcus mutans ATCC 25175 assessed as effect on planktonic growth at 0.68 ug/ml after 20 hrs relative to control; assay type: functional
Streptococcus mutans [38] = test: Antibacterial activity against Streptococcus mutans ATCC 25175 assessed as effect on planktonic growth at 0.17 ug/ml after 20 hrs relative to control; assay type: functional
Staphylococcus aureus [39] = test: Antibacterial activity against Staphylococcus aureus ATCC 25923 assessed as effect on planktonic growth at 2.73 ug/ml after 20 hrs relative to control; assay type: functional
Pseudomonas aeruginosa [40] = test: Antibacterial activity against Pseudomonas aeruginosa ATCC 27853 assessed as effect on planktonic growth at 10.9 ug/ml after 20 hrs relative to control; assay type: functional
Streptococcus mutans [41] = test: Antibacterial activity against Streptococcus mutans ATCC 25175 assessed as effect on planktonic growth at 10.9 ug/ml after 20 hrs relative to control; assay type: functional
[42] = test system: Staphylococcus epidermidis; test: Antibacterial activity against Staphylococcus epidermidis ATCC 35547 assessed as effect on planktonic growth at 0.17 ug/ml after 20 hrs relative to control; assay type: functional
Staphylococcus aureus [43] = test: Antibacterial activity against Staphylococcus aureus ATCC 25923 assessed as effect on planktonic growth at 21.9 ug/ml after 20 hrs relative to control; assay type: functional

- IC50 [9]: 81.4 µg/mL (≈ 177 µM)
- IC50 (Pseudomonas aeruginosa [15]): 2.4 µg/mL (≈ 5.21 µM)
SMILES: COc1ccc(C)cc1C1=C(Br)C(=O)N(CC(C)C)/C1=C/c1cccc(Cl)c1
- Activity (Streptococcus mutans [1]): -2.3%
- Activity (Pseudomonas aeruginosa [2]): 0.3%
- Activity [3]: 16.2%
- Activity [4]: 33.5%
- inhibition at 44 µg/mL (Streptococcus mutans [5]): 31.7%
- Activity (Pseudomonas aeruginosa [6]): 29.8%
- Activity (Streptococcus mutans [7]): -28.3%
- Activity (Staphylococcus aureus [8]): 4.1%
- inhibition [9]: Dose-dependent effect
- Activity (Streptococcus mutans [10]): -4.9%
- Activity (Staphylococcus aureus [11]): 5.8%
- Activity (Staphylococcus aureus [12]): 2.9%
- Activity [13]: 16.6%
- Activity [14]: 8.4%
- inhibition (Pseudomonas aeruginosa [15]): Dose-dependent effect
- Activity (Pseudomonas aeruginosa [16]): 10.5%
- Activity (Pseudomonas aeruginosa [17]): -1.3%
- Activity (Staphylococcus aureus [18]): 12.5%
- Activity (Streptococcus mutans [19]): -32.5%
- Activity (Streptococcus mutans [20]): -6.8%
- Activity (Staphylococcus aureus [21]): 0%
- Activity [22]: 18.1%
- Activity (Staphylococcus aureus [23]): -3.2%
- Activity (Pseudomonas aeruginosa [24]): 1.5%
- Activity (Staphylococcus aureus [25]): 1.8%
- Activity (Pseudomonas aeruginosa [26]): -0.9%
- Activity [27]: 4.2%
- Activity (Staphylococcus aureus [28]): 4.6%
- Activity (Streptococcus mutans [29]): -6.4%
- Activity (Pseudomonas aeruginosa [30]): -2.2%
- Activity [31]: 39.2%
- Activity [32]: 6.3%
- Activity (Streptococcus mutans [33]): -22.7%
- Activity [34]: 14.3%
- Activity (Pseudomonas aeruginosa [35]): 7.8%
- Activity (Pseudomonas aeruginosa [36]): -2.3%
- Activity (Streptococcus mutans [37]): -2.3%
- Activity (Streptococcus mutans [38]): -1.7%
- Activity (Staphylococcus aureus [39]): 9.2%
- Activity (Pseudomonas aeruginosa [40]): 1.8%
- Activity (Streptococcus mutans [41]): -12.4%
- Activity [42]: 13.9%
- Activity (Staphylococcus aureus [43]): 0.6%

- IC50 [9]: 67.4 µg/mL (≈ 146 µM)
- IC50 (Pseudomonas aeruginosa [15]): 0.6 µg/mL (≈ 1.3 µM)
SMILES: COc1ccc(C)cc1C1=C(Br)C(=O)N(CC(C)C)/C1=C\c1cccc(Cl)c1
- Activity (Streptococcus mutans [1]): -4.1%
- Activity (Pseudomonas aeruginosa [2]): 3%
- Activity [3]: 2.4%
- Activity [4]: -38.8%
- inhibition at 44 µg/mL (Streptococcus mutans [5]): 34%
- Activity (Pseudomonas aeruginosa [6]): 35.3%
- Activity (Streptococcus mutans [7]): -42.5%
- Activity (Staphylococcus aureus [8]): 10.8%
- inhibition [9]: Dose-dependent effect
- Activity (Streptococcus mutans [10]): -14.9%
- Activity (Staphylococcus aureus [11]): 9.2%
- Activity (Staphylococcus aureus [12]): 11.8%
- Activity [13]: -38.6%
- Activity [14]: 1.1%
- inhibition (Pseudomonas aeruginosa [15]): Dose-dependent effect
- Activity (Pseudomonas aeruginosa [16]): 25.6%
- Activity (Pseudomonas aeruginosa [17]): 0.8%
- Activity (Staphylococcus aureus [18]): 12%
- Activity (Streptococcus mutans [19]): -46.7%
- Activity (Streptococcus mutans [20]): -18.8%
- Activity (Staphylococcus aureus [21]): 13.2%
- Activity [22]: 11.4%
- Activity (Staphylococcus aureus [23]): 4.8%
- Activity (Pseudomonas aeruginosa [24]): 8.8%
- Activity (Staphylococcus aureus [25]): 6.6%
- Activity (Pseudomonas aeruginosa [26]): 0%
- Activity [27]: 6.4%
- Activity (Staphylococcus aureus [28]): 18.4%
- Activity (Streptococcus mutans [29]): -26.3%
- Activity (Pseudomonas aeruginosa [30]): 0.8%
- Activity [31]: -12.6%
- Activity [32]: -4.2%
- Activity (Streptococcus mutans [33]): -33.6%
- Activity [34]: -19.8%
- Activity (Pseudomonas aeruginosa [35]): 21.3%
- Activity (Pseudomonas aeruginosa [36]): 0.9%
- Activity (Streptococcus mutans [37]): -6%
- Activity (Streptococcus mutans [38]): -4.4%
- Activity (Staphylococcus aureus [39]): 12.6%
- Activity (Pseudomonas aeruginosa [40]): 13.5%
- Activity (Streptococcus mutans [41]): -32.3%
- Activity [42]: 5.6%
- Activity (Staphylococcus aureus [43]): 4%
